Values after ≈ are worked out from the molar mass of the structure shown. Active and inactive are the calls of the source. No cut-off for these calls is given here.
How the values were obtained:
[1] = system: Staphylococcus aureus; assay: Antibacterial activity against Staphylococcus aureus SG 511 after 18 hrs by broth microdilution method; assay type: functional; settings: SG 511, 18 h
[2] = system: Pseudomonas aeruginosa; assay: Antibacterial activity against Pseudomonas aeruginosa 01 after 18 hrs by broth microdilution method; assay type: functional; settings: Pseudomonas aeruginosa, 01, 18 h
[3] = system: Pseudomonas aeruginosa; assay: Antibacterial activity against Pseudomonas aeruginosa KW799/wt after 18 hrs by broth microdilution method; assay type: functional
[4] = system: Pseudomonas aeruginosa; assay: Antibacterial activity against Pseudomonas aeruginosa ARC 3502 after 18 hrs by broth microdilution method; assay type: functional; settings: ARC 3502, 18 h
[5] = system: Pseudomonas aeruginosa; assay: Antibacterial activity against Pseudomonas aeruginosa ARC 3506 after 18 hrs by broth microdilution method; assay type: functional; settings: ARC 3506, 18 h
[6] = system: Pseudomonas aeruginosa; assay: Antibacterial activity against clinical isolates of Pseudomonas aeruginosa ISR-14-003 after 18 hrs by broth microdilution method; assay type: functional
[7] = system: Pseudomonas aeruginosa; assay: Antibacterial activity against clinical isolates of Pseudomonas aeruginosa ISR-14-004 after 18 hrs by broth microdilution method; assay type: functional
[8] = system: Escherichia coli; assay: Antibacterial activity against Escherichia coli DC0 after 18 hrs by broth microdilution method; assay type: functional; settings: DC0, 18 h
[9] = system: Proteus mirabilis; assay: Antibacterial activity against Proteus mirabilis X235 after 18 hrs by broth microdilution method; assay type: functional; settings: X235, 18 h
[10] = system: Salmonella typhimurium; assay: Antibacterial activity against Salmonella typhimurium ATCC 13311 after 18 hrs by broth microdilution method; assay type: functional, Salmonella enterica subsp. enterica serovar Typhimurium; settings: Salmonella enterica, ATCC 13311, 18 h
[11] = system: Klebsiella aerogenes; assay: Antibacterial activity against Enterobacter aerogenes X816 after 18 hrs by broth microdilution method; assay type: functional; settings: X816, 18 h
[12] = system: Citrobacter freundii; assay: Antibacterial activity against Citrobacter freundii ATCC 29063 after 18 hrs by broth microdilution method; assay type: functional; settings: ATCC 29063, 18 h
[13] = system: Acinetobacter baumannii; assay: Antibacterial activity against Acinetobacter baumannii ATCC 17961 after 18 hrs by broth microdilution method; assay type: functional; settings: ATCC 17961, 18 h
[14] = system: Acinetobacter baumannii; assay: Antibacterial activity against Acinetobacter baumannii ATCC BAA 1797 after 18 hrs by broth microdilution method; assay type: functional; settings: ATCC BAA 1797, 18 h
[15] = system: Acinetobacter baumannii; assay: Antibacterial activity against clinical isolates of Acinetobacter baumannii ISR14-005 after 18 hrs by broth microdilution method; assay type: functional
[16] = system: Acinetobacter baumannii; assay: Antibacterial activity against carbapenemase producing Acinetobacter baumannii ATCC 17978-PNT-165 after 18 hrs by broth microdilution method; assay type: functional; settings: ATCC 17978-PNT-165, 18 h
[17] = system: Acinetobacter baumannii; assay: Antibacterial activity against Acinetobacter baumannii ATCC BAA 1793 after 18 hrs by broth microdilution method; assay type: functional
[18] = system: Acinetobacter baumannii; assay: Antibacterial activity against Acinetobacter baumannii ATCC BAA 1800 after 18 hrs by broth microdilution method; assay type: functional; settings: ATCC BAA 1800, 18 h
[19] = system: Acinetobacter baumannii; assay: Antibacterial activity against clinical isolates of Acinetobacter baumannii ARC 5079 after 18 hrs by broth microdilution method; assay type: functional
[20] = system: Acinetobacter baumannii; assay: Antibacterial activity against cephalosporinase producing Acinetobacter baumannii ATCC 17978-PNT-320 after 18 hrs by broth microdilution method; assay type: functional
[21] = system: Burkholderia dolosa; assay: Antibacterial activity against Burkholderia dolosa AU0018 after 18 hrs by broth microdilution method; assay type: functional; settings: AU0018, 18 h
[22] = system: Pseudomonas aeruginosa; assay: Antibacterial activity against clinical isolates of Pseudomonas aeruginosa ISR-14-003 after 18 hrs in presence of tazobactam by broth microdilution method; assay type: functional; settings: ISR-14-003, 18 h
[23] = system: Pseudomonas aeruginosa; assay: Antibacterial activity against clinical isolates of Pseudomonas aeruginosa ISR-14-004 after 18 hrs in presence of tazobactam by broth microdilution method; assay type: functional; settings: ISR-14-004, 18 h
[24] = system: Acinetobacter baumannii; assay: Antibacterial activity against clinical isolates of Acinetobacter baumannii ISR14-005 after 18 hrs in presence of tazobactam by broth microdilution method; assay type: functional; settings: ISR14-005, 18 h
[25] = system: Pseudomonas aeruginosa; assay: Antibacterial activity against Pseudomonas aeruginosa ARC 3506 after 18 hrs in presence of tazobactam by broth microdilution method; assay type: functional; settings: ARC 3506, 18 h
[26] = system: Acinetobacter baumannii; assay: Antibacterial activity against clinical isolates of Acinetobacter baumannii ARC 5079 in presence of tazobactam after 18 hrs by broth microdilution method; assay type: functional; settings: ARC 5079, 18 h
[27] = system: Pseudomonas aeruginosa; assay: Antibacterial activity against Pseudomonas aeruginosa ARC 3502 after 18 hrs in presence of tazobactam by broth microdilution method; assay type: functional; settings: ARC 3502, 18 h
[28] = system: Acinetobacter baumannii; assay: Antibacterial activity against Acinetobacter baumannii ATCC BAA 1793 at 10 ug/ml after 18 hrs by broth microdilution method; assay type: functional
[29] = system: Acinetobacter baumannii; assay: Antibacterial activity against Acinetobacter baumannii ATCC BAA 1800 at 10 ug/ml after 18 hrs by broth microdilution method; assay type: functional

| MIC [1] | MIC [2] | MIC [3] | MIC [4] | MIC [5] | MIC ([6]; ISR-14-003, 18 h) | MIC ([7]; ISR-14-004, 18 h) | MIC [8] | MIC [9] | MIC [10] | MIC [11] | MIC [12] | MIC [13] | MIC [14] | MIC ([15]; ISR14-005, 18 h) | MIC [16] | MIC ([17]; ATCC BAA 1793, 18 h) | MIC [18] | MIC ([19]; ARC 5079, 18 h) | MIC [21] | Compound | further results |
| --- | --- | --- | --- | --- | --- | --- | --- | --- | --- | --- | --- | --- | --- | --- | --- | --- | --- | --- | --- | --- | --- |
| > 50 µM | > 50 µM | > 50 µM | > 50 µM | > 50 µM | > 50 µM | > 50 µM | 25 µM (≈ 11 µg/mL) | 12.5 µM (≈ 5.48 µg/mL) | 12.5 µM (≈ 5.48 µg/mL) | 0.2 µM (≈ 0.0877 µg/mL) | 12.5 µM (≈ 5.48 µg/mL) | 50 µM (≈ 21.9 µg/mL) | > 50 µM | > 50 µM | 50 µM (≈ 21.9 µg/mL) | – | – | – | – | CO/N=C(\C(=O)N[C@@H]1C(=O)N(S(=O)(=O)O)[C@H]1CSCCN)c1cnc(N)s1 | – |
| > 50 µM | 0.4 µM (≈ 0.364 µg/mL) | 0.4 µM (≈ 0.364 µg/mL) | > 50 µM | > 50 µM | 1.6 µM | 6 µM | < 0.025 µM | < 0.025 µM | 0.025 µM (≈ 0.0228 µg/mL) | 0.075 µM (≈ 0.0683 µg/mL) | 0.05 µM (≈ 0.0455 µg/mL) | 0.2 µM (≈ 0.182 µg/mL) | 0.4 µM (≈ 0.364 µg/mL) | > 50 µM | 0.4 µM (≈ 0.364 µg/mL) | 0.1 to 0.4 µM (≈ 0.0911 to 0.364 µg/mL) | 0.1 to 0.4 µM (≈ 0.0911 to 0.364 µg/mL) | 1.6 to 25 µM | > 50 µM | CC(C)(O/N=C(\C(=O)N[C@@H]1C(=O)N(S(=O)(=O)O)[C@H]1CSCCNC(=O)CN(CCCCNC(=O)c1cccc(O)c1O)C(=O)c1cccc(O)c1O)c1cnc(N)s1)C(=O)O | MIC ([20]; ATCC 17978-PNT-320, 18 h): 0.4 µM; MIC [22]: 1.6 µM; MIC [23]: 3 µM; MIC [24]: 25 µM; MIC [25]: 1.6 to 25 µM; MIC [26]: 1.6 to 50 µM; MIC [27]: 1.6 µM |
| > 50 µM | > 50 µM | > 50 µM | > 50 µM | > 50 µM | > 50 µM | > 50 µM | > 50 µM | > 50 µM | > 50 µM | > 50 µM | > 50 µM | > 50 µM | > 50 µM | > 50 µM | > 50 µM | > 50 µM | > 50 µM | > 50 µM | > 50 µM | COC(=O)CSC[C@H]1[C@H](NC(=O)Cc2ccccc2)C(=O)N1S(=O)(=O)O | MIC ([20]; ATCC 17978-PNT-320, 18 h): > 50 µM |
| – | – | – | – | – | – | – | – | – | – | – | – | – | – | – | – | – | – | – | – | POLYMYXIN B | MIC [6]: 0.1 µM; MIC [7]: 0.05 µM; MIC [17]: < 0.025 µM; MIC [15]: < 0.025 µM; MIC [19]: < 0.1 µM; MIC [20]: < 0.025 µM |
| > 50 µM | > 50 µM | > 50 µM | ≥ 50 µM | > 50 µM | > 50 µM | > 50 µM | 6 µM (≈ 3.06 µg/mL) | 3 µM (≈ 1.53 µg/mL) | 4.5 µM (≈ 2.3 µg/mL) | 9.4 µM (≈ 4.8 µg/mL) | 3 µM (≈ 1.53 µg/mL) | > 50 µM | 50 µM (≈ 25.5 µg/mL) | > 50 µM | 50 µM (≈ 25.5 µg/mL) | ≥ 50 µM | ≥ 50 µM | > 50 µM | > 50 µM | CC(C)(O/N=C(\C(=O)N[C@@H]1C(=O)N(S(=O)(=O)O)[C@H]1CSCCN)c1cnc(N)s1)C(=O)O | MIC ([20]; ATCC 17978-PNT-320, 18 h): > 50 µM; MIC [25]: > 50 µM; MIC [26]: > 50 µM |

| Compound | MIC [1] | MIC [2] | MIC [3] | MIC [4] | MIC [5] | MIC ([6]; ISR-14-003, 18 h) | MIC ([7]; ISR-14-004, 18 h) | MIC [8] | MIC [9] | MIC [10] | MIC [11] | MIC [12] | MIC [13] | MIC [14] | MIC ([15]; ISR14-005, 18 h) | MIC [16] | MIC ([17]; ATCC BAA 1793, 18 h) | MIC [18] | MIC ([19]; ARC 5079, 18 h) | MIC [21] | further results |
| --- | --- | --- | --- | --- | --- | --- | --- | --- | --- | --- | --- | --- | --- | --- | --- | --- | --- | --- | --- | --- | --- |
| C[C@]1(Cn2ccnn2)[C@H](C(=O)O)N2C(=O)C[C@H]2S1(=O)=O [TAZOBACTAM] | – | – | – | > 10 µg/mL | > 10 µg/mL | > 20 µg/mL | > 20 µg/mL | – | – | – | – | – | – | – | > 20 µg/mL | – | – | – | > 10 µg/mL | > 50 µM | MIC ([20]; ATCC 17978-PNT-320, 18 h): < 10 µg/mL; Activity [28]: inactive; Activity [29]: inactive |
| C[C@H]1[C@H](NC(=O)/C(=N\OC(C)(C)C(=O)O)c2csc(N)n2)C(=O)N1S(=O)(=O)O [AZTREONAM] | > 50 µM | – | 1.6 µM (≈ 0.697 µg/mL) | – | 12.5 to 50 µM | – | – | 0.1 µM (≈ 0.0435 µg/mL) | 0.05 µM (≈ 0.0218 µg/mL) | 0.1 µM (≈ 0.0435 µg/mL) | 0.2 µM (≈ 0.0871 µg/mL) | 0.1 µM (≈ 0.0435 µg/mL) | – | – | – | 12.5 µM (≈ 5.44 µg/mL) | 12.5 to 25 µM (≈ 5.44 to 10.9 µg/mL) | 12.5 to 25 µM (≈ 5.44 to 10.9 µg/mL) | – | > 50 µM | – |
